According to patent EP1254122B1, “NOVEL 3-SUBSTITUTED 1,2,4-BENZOTRIAZINES, A METHOD FOR THEIR PRODUCTION AND THE USE THEREOF” (UFZ-UMWELTFORSCHUNGSZENTRUM Leipzig-Halle GmbH, priority 1999, dated 2001):
≈ marks a conversion by molar mass, not a printed value.

What was measured:
Type in all cases: cell-based
permanenten Zellkulturen = test: Inhibition of cell growth, permanent cell cultures (overall statement); settings: result in words; HeLa-, Hep2-, Peritonealcarcinom- and Pleurocarcinomzellen
Method: (§1) Zu je 1 ml einer entsprechenden Zellstammlösung werden die zu testenden Substanzen in wäßriger steriler Lösung in Konzentrationsschritten von je 2-50 µg gespritzt. Die Testkammern werden anschließend zusammen mit einer unbehandelten Referenzkammer bei 37°C drei Tage entwickelt.
(§2) Die Auswertung erfolgt mittels Mikroskop. Es werden Zellvermehrung bzw. Zellzerstörung (Zustand der Zellmembran sowie des Zellkern) mit unbehandelten Referenzzellen verglichen. Tabelle: IC50-Wert (50%ige Hemmung des Zellwachstums in µg/ml) ausgewählter Substanzen der Formel I
Die erfindungsgemäßen Verbindungen hemmen sämtlich das Zellwachstum von permanenten Zellkulturen wie z.B. von HeLa-, Hep2-Zellen, von Peritonealcarcinom- sowie von Pleurocarcinomzellen.

Hep2 = test: Inhibition of cell growth, Hep2 cells; settings: 37°C, three days, evaluated by microscope against untreated reference cells; for IC50: Homo sapiens, HEp-2, 72 h, read-out: IC50-Wert (50%ige Hemmung des Zellwachstums in µg/ml)
Method: as §1, §2

Peritoneal carcinom = test: Inhibition of cell growth, peritoneal carcinoma cells; settings: 37°C, three days, evaluated by microscope against untreated reference cells; for IC50: 72 h, read-out: IC50-Wert (50%ige Hemmung des Zellwachstums in µg/ml)
Method: as §1, §2

HeLa = test: Inhibition of cell growth, HeLa cells; settings: 37°C, three days, evaluated by microscope against untreated reference cells; for IC50: Homo sapiens, 72 h, read-out: IC50-Wert (50%ige Hemmung des Zellwachstums in µg/ml)
Method: as §1, §2

Pleurocarcinom = test: Inhibition of cell growth, pleural carcinoma cells; settings: 72 h, 37°C, three days, evaluated by microscope against untreated reference cells, read-out: IC50-Wert (50%ige Hemmung des Zellwachstums in µg/ml)
Method: as §1, §2

| IC50-Wert (50%ige Hemmung des Zellwachstums in µg/ml) (HeLa) [µg/mL] | Compound | Hemmung des Zellwachstums (Wirksamkeit) (permanenten Zellkulturen) | IC50 (Hep2) [µg/mL] | IC50 (Peritoneal carcinom) [µg/mL] | IC50 (HeLa) [µg/mL] | IC50-Wert (50%ige Hemmung des Zellwachstums in µg/ml) (Peritoneal carcinom) [µg/mL] | IC50-Wert (50%ige Hemmung des Zellwachstums in µg/ml) (Hep2) [µg/mL] | IC50 (Pleurocarcinom) [µg/mL] |
| --- | --- | --- | --- | --- | --- | --- | --- | --- |
| 250 (≈ 875 µM) | OC[C@@H](O)[C@@H](O)[C@H](O)c1nnc2ccc(Cl)cc2n1 [Verbindung k, 3-(D-arabino-Tetritol-1-yl)-6-chlor-benzo-1,2,4-triazin] | – | – | – | – | – | – | – |
| 160 (≈ 673 µM) | COC(=O)Cc1nnc2ccc(Cl)cc2n1 [Verbindung b, 3-(Methoxy-carbonylmethyl)-6-chlor-benzo-1,2,4-triazin] | – | – | – | – | 150 (≈ 631 µM) | 120 (≈ 505 µM) | – |
| 8 to 16 | COC(=O)Cc1nnc2cccc(Cl)c2n1 [Verbindung c, 3-(Methoxy-carbonylmethyl)-5-chlor-benzo-1,2,4-triazin] | bevorzugte Wirksamkeit | – | – | – | 12 (≈ 50.5 µM) | 16 (≈ 67.3 µM) | – |
| 8 to 16 | CCOC(=O)Cc1nnc2ccc(Br)cc2n1 [Verbindung g, 3-(Ethoxy-carbonylmethyl)-6-brom-benzo-1,2,4-triazin] | bevorzugte Wirksamkeit | – | – | – | 35 (≈ 118 µM) | 8 to 16 | – |

More lines, now with the values behind:

| Compound | IC50-Wert (50%ige Hemmung des Zellwachstums in µg/ml) (HeLa) [µg/mL] | Hemmung des Zellwachstums (Wirksamkeit) (permanenten Zellkulturen) | IC50 (Hep2) [µg/mL] | IC50 (Peritoneal carcinom) [µg/mL] | IC50 (HeLa) [µg/mL] | IC50-Wert (50%ige Hemmung des Zellwachstums in µg/ml) (Peritoneal carcinom) [µg/mL] | IC50-Wert (50%ige Hemmung des Zellwachstums in µg/ml) (Hep2) [µg/mL] | IC50 (Pleurocarcinom) [µg/mL] |
| --- | --- | --- | --- | --- | --- | --- | --- | --- |
| CC(C)NC(=O)Cc1nnc2ccccc2n1 [Verbindung l, 3-(Isopropylamino-carbonylmethyl)-1,2,4-benzotriazin] | – | bevorzugte Wirksamkeit | 100 (≈ 434 µM) | 170 (≈ 738 µM) | 86 (≈ 373 µM) | – | – | – |
| COC(=O)Cc1nnc2ccc(Cl)c(N)c2n1 [Verbindung d, 3-(Methoxy-carbonylmethyl)-5-amino-6-chlor-benzo-1,2,4-triazin] | 50 (≈ 198 µM) | – | – | – | – | 25 to 30 | – | – |
| CCOC(=O)Cc1nnc2ccccc2n1 [Verbindung f, 3-(Ethoxy-carbonylmethyl)-1,2,4-benzotriazin] | – | – | 190 to 200 (≈ 875 to 921 µM) | 180 (≈ 829 µM) | 378 (≈ 1740 µM) | – | – | 500 (≈ 2300 µM) |
| OC[C@@H](O)[C@@H](O)[C@H](O)c1nnc2ccccc2n1 [Verbindung h, 3-(D-arabino-Tetritol-1-yl)-1,2,4-benzotriazin] | – | – | 150 (≈ 597 µM) | – | 150 (≈ 597 µM) | – | – | – |
| 3-(D-galacto-Tetritol-1-yl)-1,2,4-benzotriazin [Verbindung i] | 400 | – | – | – | – | – | – | – |
| COC(=O)Cc1nnc2ccccc2n1 [Verbindung e, 3-(Methoxy-carbonylmethyl)-1,2,4-benzotriazin] | – | – | 100 (≈ 492 µM) | 350 (≈ 1720 µM) | 180 (≈ 886 µM) | – | – | 500 (≈ 2460 µM) |
